Reference: patent US9636311B2, “N,N′-di-1 naphthylguanidine HCl (NAGH) and N,N′-di-p-nitrophenylguanidine HCl (NAD) treatment for stroke at delayed timepoints” (University of South Florida, priority 2012, dated 2017)
Entries after “also recorded” stand apart in the source; their conditions may differ. Like-named read-outs stand apart in the source and are kept apart here.

Legend:
rats following MCAO [1] = assay: Brain infarction quantification (Nissl thionin) after MCAO; format: in vivo, rat; settings: s.c. daily for 3 days from 24 h post-MCAO (NAGH 0.86, NAD 2.8, Bromo-DTG 8.2, Chloro-DTG 8.5 mg/kg/day); 30 days post MCAO
Protocol: All animal procedures were performed according to the University of South Florida guidelines for the care and use of animals and protocols were reviewed and approved by the Institutional Animal Care and Use Committee and adhered to the NIH guidelines for the care and use of animals. Adult male Sprague Dawley rats (Harlan) weighing about 250-300 g at the time of surgery were used for the study. All animals were housed two per cage in a temperature controlled room, under a 12 hour light-dark cycle, and given access to water and food ad libitum. Animals were monitored daily for wellness and biweekly for weight loss. For the NAGH studies, a total of 84 animals were randomly assigned to 2 groups: MCAO only (n=42) and rat treated with NAGH (n=42) beginning 24 hour after MCAO.
(§1) MCAO surgeries were performed as described elsewhere (Vendrame M, Cassady C J, Newcomb J, Butler T, Pennypacker K R, Zigova T, et al. Stroke. 2004; 35:2390-2395). Briefly, rats were anesthetized with isoflurane, and the right common carotid and external carotid arteries were exposed using blunt dissection techniques. The vagus nerve was separated from common carotid artery and the external carotid artery was ligated proximally, and transected near the bifurcation. An embolus 40 mm in length (4.0 siliconized monofilament) was inserted into the external carotid artery and fed distally into the origin of the middle cerebral artery (˜25 mm from insertion) through the internal carotid artery. Blood samples were taken and analyzed using an i-STAT handheld analyzer for hemoglobin, hematocrit, ionized calcium, glucose, sodium, potassium, pH, pCO2, HCO3, TCO2, base excess, pO2, and O2. Cerebral blood flow was recorded using a Laser Doppler Monitor (Moor Instruments) to verify occlusion. Afterwards, the embolus was ligated permanently into the vessel and the neck incision was closed. Animals were treated with Ketoprofen IM (10 mg/kg) for three days post-surgery.
(§2) For the NAGH studies, vehicle or NAGH were prepared fresh each day. Daily subcutaneous injections (s.c) were administered beginning about 24 hours after MCAO and continued daily to about 72 hours post-surgery (FIG. 1). Animals received a total of 3 injections. A total of 84 animals were randomly assigned into 2 groups: Rats treated with vehicle (40% DMSO in sterile saline, n=42), or rats treated with 0.86 mg/kg NAGH (n=42).
For the studies with other compounds based on the structure of DTG, twenty-four hours after MCAO, the rats began a sigma agonist treatment regimen. Vehicle or drug was prepared fresh each day. […]
Infarct size was determined by Nissl thionin staining. […]

stroke = settings: Ruscher, Shamloo et al. 2011; cited from earlier work
microglial cells [2] = assay: Inhibition of microglial migration evoked by ATP; format: cell-based
Protocol: (§3) FIG. 8 is a series of images confirming NAGH acts as a sigma receptor agonist. A) Concentration-response relationship for NAGH (closed circles) and DTG (open circles) inhibition of microglial migration evoked by 100 μM ATP. […] Points represent mean (±SEM) and for all points, n>9. B) Bar graph of the mean (±SEM) number of microglial cells migrating in response to 100 μM ATP when ATP was added alone (DMEM) or in the presence of 100 μM NAGH. Microglia were further exposed to no σ antagonist (Control), or the σ-1 antagonist, BD-1047 (10 μM, BD-1047), or the σ-2 antagonist, rimcazole (10 μM, Rimcazole). Asterisks denote significant difference between DMEM and NAGH within Control, BD-1047 and Rimcazole groups, respectively. Pound symbols indicate significant difference between Control, BD-1047 and Rimcazole within DMEM and NAGH groups, respectively. P<0.05 and n=24 for all groups.
as §3, with “8A illustrates the concentration-response” for “8 is a series of images confirming NAGH acts as a sigma receptor agonist. A) Concentration-response”, “FIG. 8B depicts a bar” for “B) Bar”

microglial cells [3] = settings: 24 hours after in vitro ischemia; cited from earlier work
[4] = test system: permanent middle cerebral artery occlusion (MCAO); settings: administered beginning 24 hours after permanent MCAO; cited from earlier work
rats following MCAO [5] = assay: Step test after MCAO; format: in vivo, rat; settings: NAD 2.8 mg/kg s.c. x3; 30 days post-stroke; p<0.05
Protocol: (§4) For NAD testing, a total of 32 animals were randomly assigned into 2 groups: Vehicle (n=16), and rat treated with 2.8 mg/kg NAD (n=16). Vehicle consisted of 40% DMSO in sterile saline.
(§5) Rats were held tightly with one forelimb placed on a hard flat table top and then pulled for a length of 1 meter in the direction of the placed forelimb at constant velocity. The test was repeated with the opposite forelimb. This was repeated three times for each forelimb and the percent of contralateral forelimb paw was obtained. The bias was standardized as the absolute number of steps with the contralateral paw minus 100.

rats following MCAO [6] = assay: Spontaneous activity (automated activity monitor) after MCAO; format: in vivo, rat; settings: NAD 2.8 mg/kg s.c. x3; 30 days after MCAO; day and night
Protocol: as §1, §2, §4
Spontaneous Activity was measured during both the day (1 hr) and night (12 hrs) using an automated activity monitor (VersaMax, Accuscan Instruments, Inc). Spontaneous Activity was measured prior to stroke to establish the normal baseline for each individual animal as well as 1 month after the MCAO. The animals were placed in a Plexiglas box and allowed to roam freely. There is a three dimensional infrared array in this box and when a beam is broken, activity is recorded. A total of sixteen parameters were measured including: Vertical movement, Horizontal movement, and Stereotypic activity were selected for analysis: Horizontal activity (HA), Total distance travelled (TD), Number of movements (MVN), Movement time (MVT), Vertical activity (VA), Number of vertical movements (VMN), vertical time (VT), Stereotype counts (SC), Number of Stereotypy (SN), Stereotypy time (ST), Clockwise rotation (CR), counterclockwise rotation (CCR), Margin distance (MD), Marginal time (MT), Center distance (CD), and Center time (CT). The data are presented as mean+SEM of percent of baseline behavior.

rats following MCAO [7] = assay: Grip strength test after MCAO; format: in vivo, rat; settings: NAD 2.8 mg/kg s.c. x3; 30 days after MCAO; p=0.0007
Protocol: as §4
Motor deficits were assessed using a grip strength meter (Bioseb, # BIO-GS3). The animals were held so the front left paw could firmly grasp the bar of the strength meter, and then pulled straight backward until its front paw released its grasp. Grip strength was recorded in Newtons (N). This test was repeated 3 times.

rats following MCAO [8] = assay: Battery of behavioral tests after MCAO (corner, grip, rotorod, step, cylinder); format: in vivo, rat; settings: NAD 2.8 mg/kg s.c. x3; 30 days after MCAO
Protocol: After surgery, animals were tested was performed once before surgery and 30 days post-surgery for motor coordination and behavior. All behavioral data are reported as mean+sem.
Rotorod test, which measures motor coordination, was conducted using Omni-rotor Rotorod (Omnitech, Inc). Animals were trained on the accelerating rotorod apparatus for 3 consecutive days before times were collected. Animals were placed on the revolving rod and instrument was set to accelerate to a maximum speed of 40 rpm over 180 seconds. Latency to fall (in seconds) was recorded. This test was performed in triplicate once per day for 3 days.
as §5
The animals were placed in a transparent cylinder about 20 cm in diameter and 30 cm in height with an open top. The number times each paw was placed on the sides of the cylinder was counted a5 minute period. The test was videotaped and a mirror was placed behind the cylinder allowing the experimenter to see the placement of paws when the animal was facing away from the camera.
A 30 degree angle was formed using the edges of two plexiglass boards. The animals were placed halfway into the corner facing the corner and the total number of left and right turns was recorded. A total of 10 trials were conducted and videotaped. A non-lesioned animal turned randomly toward the left or right, while a lesioned animal preferentially turned toward the non-impaired (left) side. Results were reported as the percentage of ipsilateral (injury site, right side) versus contralateral turns.
Motor deficits were assessed using a grip strength meter (Bioseb, # BIO-GS3). […] Grip strength was recorded in Newtons (N). […]

[9] = migration evoked by 100 μM ATP, two-component Langmuir-Hill fit

**Q.** With `Cl.N=C(Nc1cccc(Cl)c1)Nc1cccc(Cl)c1` [Chloro-DTG, N,N′-di-m-Chlorophenylguanidine hydrochloride] as the compound, how does the “Infarct volume vs vehicle” value (rats following MCAO [1]) read?
**A.** Its value is “did not show significant effects over vehicle”.

**Q.** Which Infarct size (stroke) does the source give for `COc1ccc(CCN2CCN(CCCc3ccccc3)CC2)cc1OC` [SA4503] here?
**A.** Its Infarct size is “without decreasing infarct size”.

**Q.** What about the Sensorimotor function (stroke) of the same compound?
**A.** Its Sensorimotor function is “improved sensorimotor function”.

**Q.** Which “Infarct volume vs vehicle” value (rats following MCAO [1]) does the source give for `Cl.N=C(Nc1ccc(Br)cc1)Nc1ccc(Br)cc1` [Bromo-DTG, N,N′-di-p-Bromophenylguanidine hydrochloride] here?
**A.** The value was “did not show significant effects over vehicle”.

**Q.** With `Cc1ccccc1NC(=N)Nc1ccccc1C` [DTG, 1,3-di-o-tolylguanidine, reference compound] as the compound, how does the “Emax, high affinity component” value (microglial cells [2]; [9]) read?
**A.** The value was 0.38.

**Q.** And the “Emax, low affinity component” value (microglial cells [2]; [9])?
**A.** The value was 0.62.

**Q.** What about the “Hill coefficient, high affinity component” value (microglial cells [2]; [9]) of the same compound?
**A.** The value was 0.59.

**Q.** What about the “Hill coefficient, low affinity component” value (microglial cells [2]; [9]) of the same compound?
**A.** Its value is 1.7.

**Q.** And the IC50 (microglial cells [2]; migration evoked by 100 μM ATP, two-component Langmuir-Hill fit, read-out: IC50, high affinity component)?
**A.** Its IC50 is 0.76 µM.

**Q.** What about the IC50 (microglial cells [2]; read-out: IC50, low affinity component) of the same compound?
**A.** Its IC50 is 80 µM.

**Q.** What about the Microglial cell death (microglial cells [3]) of the same compound?
**A.** The Microglial cell death was “significantly reduced microglial cell death”.

**Q.** What about the “Infarct size 96 hrs post-MCAO” value [4] of the same compound?
**A.** Its value is “decreased infarct volume; also recorded: decreased infarct size”.

**Q.** And the Long-term functional recovery [4]?
**A.** The Long-term functional recovery was “failed to improve long-term functional recovery”.

**Q.** Which “Step test, steps with impaired paw compared to unimpaired paw” value (rats following MCAO [5]) does the source give for `Cl.N=C(Nc1ccc([N+](=O)[O-])cc1)Nc1ccc([N+](=O)[O-])cc1` [NAD, N,N′-di-p-Nitrophenylguanidine hydrochloride] here?
**A.** Its value is 100.3 ± 5.6%.

**Q.** What about the “Activity vs MCAO-only animals” value (rats following MCAO [6]) of the same compound?
**A.** The value was “less activity than MCAO-only animals”.

**Q.** What about the “Average grip strength vs non-treated rats” value (rats following MCAO [7]) of the same compound?
**A.** Its value is “significantly higher”.

**Q.** And the “Overall behavioral data vs vehicle, all tests except Grip Strength and Step test” value (rats following MCAO [8])?
**A.** Its value is “no significant difference”.

**Q.** And the “Infarct volume vs vehicle” value (rats following MCAO [1])?
**A.** Its value is “not significant”.
